# Values joined by “and” are separate entries in the source; they are usually repeats but may differ in a detail not shown here. Equal entries are not always repeated.
# Tests used:
# [1] = Control experiments: availability of the species in alkaline aqueous medium without using the reactor; assay type: physicochemical; settings: acid solubilized directly in aqueous phase, no reactor
# Method: Previously, the back titration procedure was internalized and optimized (Example 1), ensuring that the reproducibility of the measurements was adequate (standard deviation values below 10%, for example) and that the recoveries were close to what was expected based on the purity of the reagents (i.e., close to or above 90%). […] Control experiments were performed (measuring the availability of the species in an aqueous medium, without using the reactor) by solubilizing the organic acid directly in the aqueous phase and titrating a 10.0 mL aliquot; the same way, experiments were performed in the reactor based on the standardization of heptol and salinity already discussed (3.5%).
# [2] = Partition equilibrium in reactor pressurized with CO2, in presence and absence of alkalinity (NaHCO3, Na2CO3), back titration
# Method: In the initial tests, 100 mL of heptol and 300 mL of water (with or without salinity) were used, with the addition of acidic species in the organic phase, in order to verify migration to the aqueous phase. As a rule, the system was kept under agitation at 500 rpm for 8 min, followed by rest for 10 min and, finally, collection of 50.0 mL aliquots of the aqueous phase for titrimetric analysis.
# A 316 stainless steel alloy reactor (Parr®) (capacity for 600 mL and operational up to 20 MPa pressure) was used. For this purpose, a temperature range between 25° C. and 80° C. and pressure between 0.1 MPa and 1.0 MPa were used, and the reactor was pressurized with CO2. Thus, the results were compared (in terms of migration of the acidic species (%, mol) by means of back titrations) and the influence of pressure and temperature on the partition was estimated, as well as possible synergistic effects with the sources of alkalinity added to the aqueous phase.
# [3] = Partition equilibrium in the presence of surfactants (TBA, CTA, TMA); assay type: physicochemical
# From the text: The presence of chemical compounds usually added in the chain of unit operations of oil extraction and production, such as demulsifiers and surfactants, can affect the partition equilibrium of species in this water/oil system. In order to understand the extent of this effect, as well as discern the relevance of the chemical structure on this effect, the following items were chosen: • Dissolvan 961 (Clariant), composed of oil hydrocarbons (CAS 918-811-1) and ethanol (CAS 64-17-5); • Dissolvan 974 (Clariant), composed of EO-PO block polymer poly adducts and Bisphenol-A-diglycidyl ether (CAS 68123-18-2) and ethanol (CAS 64-17-5); • Tetrabutylammonium chloride (CAS 1112-67-0), 97% purity; • Cetyltrimethylammonium chloride (CAS 112-02-7), 25% in water; and • Trimethylammonium chloride (CAS 593-81-7), 98% purity.
# For this study, the experiments (in triplicate) used between 100.0 and 1000.0 mg·L^−1 of each compound, comparing the results with control tests (absence of the component), all with constant salinity at 3.5% (m·v^−1). Finally, neutralization titration with a standardized NaOH titrant solution was used to determine the effect on the partition equilibrium for four acidic species (the same as in the other examples, except for dicyclohexylacetic acid).
# Considering the study with surfactants, the (individual) addition of three species to the control system was evaluated (tetrabutylammonium chloride (TBA), tetramethylammonium chloride (TMA) and cetyltrimethylammonium chloride (CTA)). For this purpose, the surfactants have distinct chemical structures, namely the size of the side chain, and their eventual effect on the partition equilibrium of the acidic species was evaluated.
# [4] = Partition equilibrium in the presence of demulsifiers (Dissolvan 961, Dissolvan 974)
# [5] = Partition equilibrium (migration to aqueous phase) heptol/water under pressure and temperature, central composite design, potentiometric titration; assay type: physicochemical; settings: for Migration, Predicted: model value
# Method: Three multivariate experimental designs (central composite designs) were performed in which the variables pressure (up to 1 MPa) and temperature (between 25° C. and 80° C.) were considered independent variables, with the migration of three acidic species as the response factor: benzoic, pentanoic and cyclohexanepentanoic acid. For this purpose, 5 levels were defined and gave rise to 10 experiments for each acidic species (Table 4), added to two control experiments (with higher pressure and temperature, as well as in the absence of pressure and at room temperature).
# The experiments were performed with constant salinity of 3.5% (m·v^−1), constant heptol fraction (70:30, for heptane and toluene), and acidic species concentration of 0.03 M for benzoic and pentanoic acid, and 0.01 M for cyclohexanepentanoic acid. The results were evaluated with 95% confidence, using a response surface to estimate the maximum observable effect in each case, provided that the mathematical correlation was equal to or greater than R^2: 0.75.
# [6] = 52 °C, 0.5 MPa (experiments 9 and 10)
compound,measurement,setting,value
"CCCCC(=O)O [Pentanoic Acid, pentanoic acid]",Availability (reference value),[1]; Na2CO3 + NaHCO3 (3.48×10^−5 mol),66.0 % mol
same,Availability (reference value),[1]; NaHCO3 (3.45×10^−5 mol),90.7 % mol
same,Migration,"[2]; 25° C. and 1.0 MPa CO2, no alkalinity",100 % mol
same,Migration,"[2]; 80° C. and 1.0 MPa CO2, no alkalinity",82.4 % mol
same,Migration,"[2]; Na2CO3 + NaHCO3, 25° C. and 0.1 MPa",61.3 % mol
same,Migration,"[2]; Na2CO3 + NaHCO3, 25° C. and 1.0 MPa CO2",100 % mol
same,Migration,"[2]; Na2CO3 + NaHCO3, 80° C. and 1.0 MPa CO2",79.9 % mol
same,Migration,"[2]; NaHCO3, 25° C. and 0.1 MPa",69.2 % mol
same,Migration,"[2]; NaHCO3, 25° C. and 1.0 MPa CO2",100 % mol
same,Migration,"[2]; NaHCO3, 80° C. and 1.0 MPa CO2",96.3 % mol
same,Migration,"[2]; Reference (heptol + 3.5% NaCl), no alkalinity",77 % mol
same,Migration,"[3]; Absence of surfactant, salinity 3.5%","77.0 %, mol"
same,Migration,[3]; CTA100 (cetyltrimethylammonium chloride 100 mg · L^−1),"76.0 %, mol"
same,Migration,[3]; CTA1000 (1000 mg · L^−1),"85.0 %, mol"
same,Migration,[3]; TBA100 (tetrabutylammonium chloride 100 mg · L^−1),"76.2 %, mol"
same,Migration,[3]; TBA1000 (1000 mg · L^−1),"73.3 %, mol"
same,Migration,[3]; TMA100 (trimethylammonium chloride 100 mg · L^−1),"83.2 %, mol"
same,Migration,[3]; TMA1000 (1000 mg · L^−1),"83.5 %, mol"
same,Increase in migration to the aqueous phase with CTA,"[3]; surfactant CTA, 1000 mg·L^−1",~10%
same,Effect of TBA on migration to the aqueous phase,"[3]; surfactant TBA, different concentrations",no significant effect
same,Increase in affinity for the hydrophilic phase with TMA,"[3]; surfactant TMA, from 100 mg·L^−1",approximately 10%
same,Migration,"[4]; Absence of ions (no demulsifier), salinity 3.5%","77.0 %, mol"
same,Migration,[4]; D961 50 mg · L^−1,"67.0 %, mol"
same,Migration,[4]; D961 100 mg · L^−1,"70.0 %, mol"
same,Migration,[4]; D961 1000 mg · L^−1,"75.7 %, mol"
same,Migration,[4]; D974 50 mg · L^−1,"66.9 %, mol"
same,Migration,[4]; D974 100 mg · L^−1,"74.3 %, mol"
same,Migration,[4]; D974 1000 mg · L^−1,"74.8 %, mol"
same,Effect of demulsifiers on partition equilibrium,"[4]; up to 1000 mg·L^−1, 95% significance",no observable effect
same,"Migration, Measured","[5]; 20 °C, 0.1 MPa (experiment 12, control)","86.6 %, mol"
same,"Migration, Increment (related to control)","[5]; 25 °C, 0.5 MPa (experiment 5)","−10.8 %, mol"
same,"Migration, Measured","[5]; 25 °C, 0.5 MPa (experiment 5)","77.3 %, mol"
same,"Migration, Increment (related to control)","[5]; 38 °C, 0.25 MPa (experiment 1)","−13.3 %, mol"
same,"Migration, Measured","[5]; 38 °C, 0.25 MPa (experiment 1), heptol 70:30, 3.5% salinity","75.1 %, mol"
same,"Migration, Increment (related to control)","[5]; 38 °C, 0.75 MPa (experiment 3)","−12.2 %, mol"
same,"Migration, Measured","[5]; 38 °C, 0.75 MPa (experiment 3)","76.1 %, mol"
same,"Migration, Increment (related to control)","[5]; 52 °C, 0.1 MPa (experiment 7)","−1.5 %, mol"
same,"Migration, Measured","[5]; 52 °C, 0.1 MPa (experiment 7)","85.3 %, mol"
same,"Migration, Increment (related to control)",[5]; [6],"2.2 %, mol and 1.8 %, mol"
same,"Migration, Measured","[5]; 52 °C, 0.5 MPa (experiments 9 and 10, centre point)","88.5 %, mol and 88.2 %, mol"
same,"Migration, Increment (related to control)","[5]; 52 °C, 1 MPa (experiment 8)","3.1 %, mol"
same,"Migration, Measured","[5]; 52 °C, 1 MPa (experiment 8)","89.4 %, mol"
same,"Migration, Increment (related to control)","[5]; 66 °C, 0.25 MPa (experiment 2)","−4.1 %, mol"
same,"Migration, Measured","[5]; 66 °C, 0.25 MPa (experiment 2)","83.1 %, mol"
same,"Migration, Increment (related to control)","[5]; 66 °C, 0.75 MPa (experiment 4)","−5.2 %, mol"
same,"Migration, Measured","[5]; 66 °C, 0.75 MPa (experiment 4)","82.2 %, mol"
same,"Migration, Increment (related to control)","[5]; 80 °C, 0.5 MPa (experiment 6)","0.5 %, mol"
same,"Migration, Measured","[5]; 80 °C, 0.5 MPa (experiment 6)","87.1 %, mol"
same,"Migration, Increment (related to control)","[5]; 80 °C, 1 MPa (experiment 11)","2.5 %, mol"
same,"Migration, Measured","[5]; 80 °C, 1 MPa (experiment 11, control)","88.8 %, mol"
same,"Migration, Predicted","[5]; 25 °C, 0.5 MPa (experiment 5)","74.2 %, mol"
same,"Migration, Predicted","[5]; 38 °C, 0.25 MPa (experiment 1)","79.9 %, mol"
same,"Migration, Predicted","[5]; 38 °C, 0.75 MPa (experiment 3)","82.2 %, mol"
same,"Migration, Predicted","[5]; 52 °C, 0.1 MPa (experiment 7)","83.6 %, mol"
same,"Migration, Predicted",[5]; [6],"85.4 %, mol"
same,"Migration, Predicted","[5]; 52 °C, 1 MPa (experiment 8)","86.3 %, mol"
same,"Migration, Predicted","[5]; 66 °C, 0.25 MPa (experiment 2)","86.5 %, mol"
same,"Migration, Predicted","[5]; 66 °C, 0.75 MPa (experiment 4)","86.9 %, mol"
same,"Migration, Predicted","[5]; 80 °C, 0.5 MPa (experiment 6)","85.5 %, mol"
same,"Migration, Predicted","[5]; 80 °C, 1 MPa (experiment 11)","85.4 %, mol"
same,"Decrease in the tendency to migrate relative to control, maximum over the design","[5]; pressure up to 1 MPa, 25-80 °C",up to 13.3 % mol
same,"Increase in migration relative to control, maximum over the design","[5]; pressure up to 1 MPa, 25-80 °C",up to 3.1 % mol
